# Data: patent publication US20250064799A1, “ORAL FORMULATIONS OF LEVOSIMENDAN FOR TREATING PULMONARY HYPERTENSION WITH HEART FAILURE WITH PRESERVED EJECTION FRACTION” (Tenax Therapeutics, Inc., priority 2021, published 2025)
# Columns and labels:
# Assay type in all cases: in vivo, human
# [1] = test system: subjects with pulmonary hypertension with heart failure and preserved ejection fraction; test: TNX-LVO-05 safety review: treatment emergent adverse events
# Excerpt: This is the third safety review for Study Protocol No. TNX-LVO-05. This review a) summarizes treatment emergent adverse events (TEAEs), treatment emergent serious adverse events (TESAEs), discontinuations due to TEAEs, and b) provides an overall assessment of safety data.
# As of 4 Nov. 2020, 36 subjects have been enrolled in this open-label study with levosimendan and 18 (−5; this number presents change versus previous Safety Review) are still active. Seven subjects (+3) withdrew due to AE, and eight (+2) subjects withdrew consent. One subject was withdrawn by investigator decision.
# patients with PH-HFpEF = test: Serum BNP or NT-proBNP levels, I.V. to oral levosimendan transition study
# Protocol: Methods: Patients with PH-HFpEF who were in the open label extension study of the HELP Trial for more than 18 months volunteered to enroll in this transition protocol. Patients were initiated with 1 mg/day of oral levosimendan 5-7 days after the last IV levosimendan infusion. The oral dose was increased every 2 weeks by 1 mg/day to a maximum of 4 mg/day over an 8 week period. The highest daily dose was determined by the investigator based on clinical assessments of symptoms and side effects. The primary safety endpoints were change in resting heart rate and blood pressure from baseline to final study visit and all other adverse events. Secondary efficacy endpoints included change in six-minute walk distance (6MWD), serum brain natriuretic peptide (BNP) or NT-proBNP levels, and quality of life as assessed by Kansas City Cardiomyopathy Questionnaire clinical summary score (KCCQ-CS) and overall summary score (KCCQ-OS) from baseline to final study visit. All comparisons were the baseline and at week 6-8 measurements at the highest daily dose of levosimendan.
# • Change in six-minute walk distance (6MWD) from baseline to final study visit • Change in serum brain natriuretic peptide (BNP) or NT-proBNP levels from baseline to final study visit • Change in quality of life as assessed by Kansas City Cardiomyopathy Questionnaire clinical summary score (KCCQ-CS) and overall summary score (KCCQ-OS) from baseline to final study visit
# All comparisons were the baseline and at week 6-8 measurements at the highest daily dose of levosimendan.
# [2] = test system: Patient 019-002 with PH-HFpEF; test: HELP Study 24-hour open label lead-in infusion, rest and exercise right heart catheterization, Patient 019-002
# Protocol: FIG. 3: Pulmonary Capillary Wedge Pressure (PCWP) of Patient […] of HELP Study.
# During the HELP Study, as described in PCT International Application Publication No. WO 2021/126884, the entire contents of which are incorporated by reference, Patient 019-002 was administered empagliflozin shortly after beginning levosimendan therapy.
# Specifically, Patient 019-002 had established PH-HFpEF and was initially enrolled into the HELP Trial. The diagnosis of PH-HFpEF was confirmed by rest and exercise right heart catheterization. […] The PCWP of 35 mmHg at rest increased with exercise to 55 mmHg at baseline. […] Thus, levosimendan produced a 40% fall in resting PCWP and a 33% fall in exercise PCWP. In addition, at baseline the CVP was 18 mmHg and increased to 30 mmHg with exercise. Following the 24 hours of i.v. levosimendan the CVP fell to 12 mmHg at rest and to 21 mmHg with exercise. Thus, levosimendan produced a 33% fall in resting CVP, and a 30% fall in CVP with exercise. Accordingly, the response of Patient 019-002 to levosimendan treatment was typical of other patients in the study in terms of improvements to their hemodynamic profile (FIG. 3).
# [3] = 24 hours of i.v. levosimendan vs baseline
structure (smiles),measurement,setting,value
C[C@@H]1CC(=O)NN=C1c1ccc(NN=C(C#N)C#N)cc1 [levosimendan],TEAE arthralgia,[1]; of 36 enrolled,3 subjects
same,TEAE asthenia,[1]; of 36 enrolled,3 subjects
same,TEAE back pain,[1]; of 36 enrolled,3 subjects
same,TEAE cardiac failure,[1]; of 36 enrolled,6 subjects
same,TEAE dermatitis,[1]; of 36 enrolled,3 subjects
same,TEAE device infusion issues,[1]; of 36 enrolled,3 subjects
same,TEAE dizziness,[1]; of 36 enrolled,8 subjects
same,TEAE dyspnea,[1]; of 36 enrolled,8 subjects
same,TEAE fluid overload,[1]; of 36 enrolled,3 subjects
same,TEAE gout,[1]; of 36 enrolled,3 subjects
same,TEAE headache,[1]; of 36 enrolled,5 subjects
same,TEAE hemoptysis,[1]; of 36 enrolled,3 subjects
same,TEAE hypokalemia,[1]; of 36 enrolled,7 subjects
same,TEAE palpitations,[1]; of 36 enrolled,4 subjects
same,TEAE pneumonia,[1]; of 36 enrolled,3 subjects
same,TEAE upper respiratory tract infection,[1]; of 36 enrolled,3 subjects
same,TEAE urinary tract infection,[1]; of 36 enrolled,3 subjects
same,TEAE ventricular extrasystoles,[1]; of 36 enrolled,3 subjects
same,TEAE weight increased,[1]; of 36 enrolled,3 subjects
same,drug-related TEAE device infusion issue,[1]; of 36 enrolled,3 subjects
same,drug-related TEAE headache,[1]; of 36 enrolled,2 subjects
same,drug-related TEAE palpitations,[1]; of 36 enrolled,2 subjects
same,drug-related TEAE urticaria,[1]; of 36 enrolled,2 subjects
same,drug-related TEAE ventricular extrasystoles,[1]; of 36 enrolled,2 subjects
same,subjects permanently discontinued study drug due to a TEAE,[1]; of 36 enrolled,5 subjects
same,"subjects with TEAEs, SOC General disorders and administration site conditions",[1]; of 36 enrolled,15 subjects
same,"subjects with TEAEs, SOC Nervous system disorders",[1]; of 36 enrolled,15 subjects
same,TESAE asthenia,[1]; of 36 enrolled (5.6%),2 subjects
same,TESAE cardiac failure congestive,[1]; of 36 enrolled (5.6%),2 subjects
same,TESAE pneumonia,[1]; of 36 enrolled (8.3%),3 subjects
same,"TESAEs, SOC Metabolism and nutrition disorders",[1]; of 36 enrolled (8.3%),4 subjects
same,"related TEAEs, SOC Nervous system disorders",[1]; of 36 enrolled (8.3%),3 subjects
same,"related TEAEs, SOC Respiratory, thoracic and mediastinal disorders",[1]; of 36 enrolled (8.3%),3 subjects
same,"related TEAEs, SOC Skin and subcutaneous tissue disorders",[1]; of 36 enrolled (8.3%),3 subjects
same,"related TEAEs, SOC cardiac disorders",[1]; of 36 enrolled (8.3%),5 subjects
same,TESAE cardiac failure,[1]; of 36 enrolled (11.1%),4 subjects
same,"related TEAEs, SOC Product issues",[1]; of 36 enrolled (11.4%),4 subjects
same,"TESAEs, SOC Infections and Infestations",[1]; of 36 enrolled (22.2%),8 subjects
same,"TESAEs, SOC cardiac disorders",[1]; of 36 enrolled (22.2%),8 subjects
same,subjects with TEAE severity moderate,[1]; of 36 enrolled (25.0%),9 subjects
same,subjects with TEAE severity mild,[1]; of 36 enrolled (27.8%),10 subjects
same,subjects with TEAE severity severe,[1]; of 36 enrolled (36.1%),13 subjects
same,subjects with TEAEs considered related to the study drug,[1]; of 36 enrolled (41.7%),15 subjects
same,"subjects with TEAEs, SOC Cardiac disorders",[1]; of 36 enrolled (47.2%),17 subjects
same,"subjects with TEAEs, SOC Infections and Infestations",[1]; of 36 enrolled (47.2%),17 subjects
same,subjects with serious TEAEs (TESAEs),[1]; of 36 enrolled (55.6%),20 subjects
same,subjects with TEAEs,[1]; of 36 enrolled (88.9%),32 subjects
same,overall safety assessment,"[1]; third safety review, as of 4 Nov. 2020",no safety trends or signals
same,serious TEAEs considered related,[1]; two of 36 enrolled,5.6%
same,change in NT-proBNP,"patients with PH-HFpEF; n=7, baseline to final study visit, oral levosimendan",−239.4 (SD 548.1) pg/dl
same,change in BNP,"patients with PH-HFpEF; n=8, baseline to final study visit, oral levosimendan",−133.3 (SD 136.6) pg/dl
same,improvement in BNP/NT-ProBNP biomarker measurements,patients with PH-HFpEF; oral levosimendan compared to weekly I.V. infusion,22%
same,fall in CVP with exercise,[2]; [3],30%
same,fall in exercise PCWP,[2]; [3],33%
same,fall in resting CVP,[2]; [3],33%
same,fall in resting PCWP,[2]; [3],40%
same,CVP at rest,[2]; following 24 hours of i.v. levosimendan (baseline 18 mmHg),12 mmHg
same,CVP with exercise,[2]; following 24 hours of i.v. levosimendan (baseline 30 mmHg),21 mmHg
same,PCWP at rest,[2]; following 24 hours of i.v. levosimendan (baseline 35 mmHg),21 mmHg
same,PCWP with exercise,[2]; following 24 hours of i.v. levosimendan (baseline 55 mmHg),37 mmHg
same,pulmonary capillary wedge pressure (PCWP) after levosimendan administration (FIG. 3),[2]; single 24-hour open label lead-in infusion,decrease
